Results: patent US9464084B2, “P2X7 modulators” (Janssen Pharmaceutica NV, priority 2013, dated 2016)

Legend:
P2X7 [1] = molecular target: T1, P2X7 (Homo sapiens (Human), UniProt Q99572); assay: Radioligand binding, tritiated A-804598, human P2X7-1321N1 cell membranes; details: 1 hour at 4° C.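 Further: ki obtained from the binding IC50 after correction for tracer concentration and tracer affinity.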
Procedure: On the day of the experiment, cell membrane preparations were made according to standard published methods. […] The assay was terminated by filtration (GF/B filters pre-soaked with 0.3% PEI) and washed with washing buffer (Tris-HCl 50 mM). The IC50 generated in the binding assay was corrected for tracer concentration and affinity of the tracer to derive at the affinity (Ki) of the test compounds.

rat P2X7 = rat P2X7 (Rattus norvegicus (Rat), UniProt Q64663); assay: Ca2+ flux (FLIPR) in 1321N1 cells expressing recombinant rat P2X7 channel; format: cell-based; details: 250 μM BzATP;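 further: Calcium-4 dye fluorescence change read 180 s after agonist addition, following 30 min cell preincubation with test compound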
P2X7 [2] = molecular target: T1, P2X7; assay: P2X7 antagonism in human PBMCs (LPS + Bz-ATP induced IL-1β release, ELISA); format: cell-based; details: LPS 30 ng/ml, Bz-ATP 0.5 mM; for PBMC 1 μM (% control): compound 1 μM; for PBMC 10 μM (% control): compound 10 μM;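 on all read-outs here: PBMCs from donor human blood, with a further 1.5 h incubation of the cells in the assay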
P2X7 [3] = molecular target: T1, P2X7; assay: Ca2+ flux (FLIPR) in 1321N1 cells expressing recombinant human P2X7 channel; format: cell-based; details: 250 μM BzATP;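 further: Calcium-4 dye-loaded cells exposed to compound for 30 min before agonist addition, fluorescence change read 180 s after agonist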

T1 sequence (Q99572 whole entry): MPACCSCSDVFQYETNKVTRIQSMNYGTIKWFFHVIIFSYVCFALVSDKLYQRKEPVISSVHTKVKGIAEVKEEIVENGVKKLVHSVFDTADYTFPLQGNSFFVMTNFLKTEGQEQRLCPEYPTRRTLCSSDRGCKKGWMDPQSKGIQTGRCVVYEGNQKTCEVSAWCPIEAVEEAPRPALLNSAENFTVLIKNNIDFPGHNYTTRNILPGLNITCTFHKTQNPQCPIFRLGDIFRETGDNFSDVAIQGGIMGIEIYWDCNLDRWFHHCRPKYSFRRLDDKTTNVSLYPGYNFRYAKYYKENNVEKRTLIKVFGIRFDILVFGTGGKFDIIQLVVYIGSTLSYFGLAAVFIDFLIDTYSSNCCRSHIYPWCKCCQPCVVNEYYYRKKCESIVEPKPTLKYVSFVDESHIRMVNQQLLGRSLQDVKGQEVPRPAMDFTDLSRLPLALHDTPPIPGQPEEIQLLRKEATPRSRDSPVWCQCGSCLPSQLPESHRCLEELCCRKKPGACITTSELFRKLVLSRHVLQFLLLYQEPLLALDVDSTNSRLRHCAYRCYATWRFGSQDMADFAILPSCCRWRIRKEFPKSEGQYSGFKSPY
Chain of rat P2X7 (Q64663 whole entry): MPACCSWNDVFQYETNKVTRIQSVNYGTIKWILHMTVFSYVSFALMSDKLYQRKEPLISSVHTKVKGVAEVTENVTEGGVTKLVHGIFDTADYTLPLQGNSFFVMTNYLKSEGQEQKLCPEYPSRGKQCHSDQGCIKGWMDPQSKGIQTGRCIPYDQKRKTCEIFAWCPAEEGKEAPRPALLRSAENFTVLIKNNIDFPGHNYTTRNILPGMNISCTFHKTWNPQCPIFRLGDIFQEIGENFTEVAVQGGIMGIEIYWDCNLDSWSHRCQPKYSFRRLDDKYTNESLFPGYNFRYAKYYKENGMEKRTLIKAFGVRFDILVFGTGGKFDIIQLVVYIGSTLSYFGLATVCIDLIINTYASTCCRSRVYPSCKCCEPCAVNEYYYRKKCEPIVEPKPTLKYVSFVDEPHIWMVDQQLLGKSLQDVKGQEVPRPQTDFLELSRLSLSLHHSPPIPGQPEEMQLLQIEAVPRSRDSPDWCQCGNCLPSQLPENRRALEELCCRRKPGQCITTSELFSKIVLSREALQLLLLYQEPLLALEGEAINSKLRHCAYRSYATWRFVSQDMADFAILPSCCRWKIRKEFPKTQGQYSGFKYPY

Ki (P2X7 [1]) [nM] | IC50 (rat P2X7) [nM] | PBMC 1 μM (% control) (P2X7 [2]) | IC50 (P2X7 [3]) [nM] | PBMC 10 μM (% control) (P2X7 [2]) | SMILES
26.3 | 440 | 2.8 | 5.4 |  | Cn1nc2c(c1-c1ccccn1)CCN(C(=O)c1cccc(C(F)(F)F)c1Cl)C2 [Example 92, 6-{[2-Chloro-3-(trifluoromethyl)phenyl]carbonyl}-2-methyl-3-pyridin-2-yl-4,5,6,7-tetrahydro-2H-pyrazolo[3,4-c]pyridine]
2.5 |  |  |  | 6.1 | C[C@H]1Cc2c(nnn2-c2ncc(F)cn2)CN1C(=O)c1ccc(Cl)c(F)c1Cl (single isomer, unassigned) [Example 218, (6S*)-5-[(2,4-Dichloro-3-fluorophenyl)carbonyl]-1-(5-fluoropyrimidin-2-yl)-6-methyl-4,5,6,7-tetrahydro-1H-[1,2,3]triazolo[4,5-c]pyridine]
100 | 794 | 1.1 |  |  | Cn1nc(-c2cccnc2)c2c1CN(C(=O)c1cccc(C(F)(F)F)c1Cl)CC2 [Example 108, 6-{[2-Chloro-3-(trifluoromethyl)phenyl]carbonyl}-1-methyl-3-pyridin-3-yl-4,5,6,7-tetrahydro-1H-pyrazolo[3,4-c]pyridine]
39.8 |  |  | 8.6 | −1.3 | CC1c2nnn(-c3ncco3)c2CCN1C(=O)c1cccc(C(F)(F)F)c1Cl (centres unmarked) [Example 250]
10 |  |  | 2 | 33.8 | C[C@H]1c2nnn(-c3ccccn3)c2CCN1C(=O)c1ccc(F)c(Cl)c1Cl (single isomer, unassigned) [Example 142, (S*)-(2,3-Dichloro-4-fluorophenyl)(4-methyl-1-(pyridin-2-yl)-6,7-dihydro-1H-[1,2,3]triazolo[4,5-c]pyridin-5(4H)-yl)methanone]
12.6 |  |  |  | 0.6 | CC1Cc2c(nnn2-c2ncc(F)cn2)CN1C(=O)c1ccc(Cl)c(F)c1Cl (centres unmarked) [Example 216, 5-[(2,4-Dichloro-3-fluorophenyl)carbonyl]-1-(5-fluoropyrimidin-2-yl)-6-methyl-4,5,6,7-tetrahydro-1H-[1,2,3]triazolo[4,5-c]pyridine]
42.7 |  | 14.3 | 9.4 |  | O=C(c1cccc(C(F)(F)F)c1Cl)N1CCc2c(ncn2-c2cnccn2)C1 [Example 6, (2-Chloro-3-(trifluoromethyl)phenyl)(1-(pyrazin-2-yl)-6,7-dihydro-1H-imidazo[4,5-c]pyridin-5(4H)-yl)methanone]
398 | 6.3 | 31.7 |  |  | O=C(c1cccc(C(F)(F)F)c1Cl)N1CCc2c(nnn2-c2cnccn2)C1c1ccccc1 (centres unmarked) [Example 77, 5-{[2-Chloro-3-(trifluoromethyl)phenyl]carbonyl}-4-phenyl-1-pyrazin-2-yl-4,5,6,7-tetrahydro-1H-[1,2,3]triazolo[4,5-c]pyridine]
75.9 |  | 11.5 | 6.1 |  | O=C(c1cccc(C(F)(F)F)c1Cl)N1CCc2c(ncn2-c2ccccn2)C1 [Example 1, (2-Chloro-3-(trifluoromethyl)phenyl)(1-(pyridin-2-yl)-6,7-dihydro-1H-imidazo[4,5-c]pyridin-5(4H)-yl)methanone]
126 |  |  | 78.5 | 1.6 | CC1c2ncn(-c3ncccc3F)c2CCN1C(=O)c1cccc(C(F)(F)F)c1Cl (centres unmarked) [Example 21, (2-Chloro-3-(trifluoromethyl)phenyl)(1-(3-fluoropyridin-2-yl)-4-methyl-6,7-dihydro-1H-imidazo[4,5-c]pyridin-5(4H)-yl)methanone]
100 |  |  | 48.2 | 1.7 | O=C(c1cccc(C(F)(F)F)c1Cl)N1CCc2c(nnn2-c2cccc(F)n2)C1 [Example 135, (2-Chloro-3-(trifluoromethyl)phenyl)(1-(6-fluoropyridin-2-yl)-6,7-dihydro-1H-[1,2,3]triazolo[4,5-c]pyridin-5(4H)-yl)methanone]
178 |  |  | 148 | −11.0 | Cc1nc2c(n1-c1ccccc1)CCN(C(=O)c1cccc(Cl)c1Cl)C2 [Example 331, (2,3-dichlorophenyl)(2-methyl-1-phenyl-6,7-dihydro-1H-imidazo[4,5-c]pyridin-5(4H)-yl)methanone]
39.8 |  |  | 8.6 | 0.0 | C[C@H]1Cc2c(nnn2-c2cc(F)ccn2)CN1C(=O)c1cccc(C(F)(F)F)c1Cl (single isomer, unassigned) [Example 199, (6S*)-5-{[2-Chloro-3-(trifluoromethyl)phenyl]carbonyl}-1-(4-fluoropyridin-2-yl)-6-methyl-4,5,6,7-tetrahydro-1H-[1,2,3]triazolo[4,5-c]pyridine]
158 |  | 9.1 | 87.5 |  | CCC1c2ncn(-c3cnccn3)c2CCN1C(=O)c1cccc(C(F)(F)F)c1Cl (centres unmarked) [Example 15, (2-Chloro-3-(trifluoromethyl)phenyl)(4-ethyl-1-(pyrazin-2-yl)-6,7-dihydro-1H-imidazo[4,5-c]pyridin-5(4H)-yl)methanone]
182 |  | −15.1 | 10 |  | O=C(c1cccc(C(F)(F)F)c1Cl)N1CCc2c(-c3ccc(F)cc3)n[nH]c2C1 [Example 110, 6-{[2-Chloro-3-(trifluoromethyl)phenyl]carbonyl}-3-(4-fluorophenyl)-4,5,6,7-tetrahydro-2H-pyrazolo[3,4-c]pyridine]
93.3 |  | 71.7 | 85.5 |  | O=C(c1cccc(C(F)(F)F)c1Cl)N1CCc2c(nnn2-c2ccccc2OCCF)C1 [Example 126, (2-Chloro-3-(trifluoromethyl)phenyl)(1-(2-(2-fluoroethoxy)phenyl)-6,7-dihydro-1H-[1,2,3]triazolo[4,5-c]pyridin-5(4H)-yl)methanone]
275 |  | 56.0 | 392 |  | Cn1nc(-c2ccccc2)c2c1CN(C(=O)c1cccc(Cl)c1Cl)CC2 [Example 103, 6-[(2,3-Dichlorophenyl)carbonyl]-1-methyl-3-phenyl-4,5,6,7-tetrahydro-1H-pyrazolo[3,4-c]pyridine]
55 |  |  | 16.1 | −1.6 | Cc1c(C(=O)N2CCc3c(ncn3-c3ccc(F)cn3)C2C)cccc1C(F)(F)F (centres unmarked) [Example 263, (1-(5-fluoropyridin-2-yl)-4-methyl-6,7-dihydro-1H-imidazo[4,5-c]pyridin-5(4H)-yl)(2-methyl-3-(trifluoromethyl)phenyl)methanone]
794 |  |  | 718 | 46.7 | O=C(c1cccc(C(F)(F)F)c1F)N1CCc2c(nc(C(F)(F)F)n2-c2ccccc2)C1 [Example 57, 5-{[2-Fluoro-3-(trifluoromethyl)phenyl]carbonyl}-1-phenyl-2-(trifluoromethyl)-4,5,6,7-tetrahydro-1H-imidazo[4,5-c]pyridine]
31.6 |  |  | 8 | 7.3 | CC1Cc2c(nnn2-c2cc(F)ccn2)CN1C(=O)c1cccc(C(F)(F)F)c1Cl (centres unmarked) [Example 176, (2-Chloro-3-(trifluoromethyl)phenyl)(1-(4-fluoropyridin-2-yl)-6-methyl-6,7-dihydro-1H-[1,2,3]triazolo[4,5-c]pyridin-5(4H)-yl)methanone]
39.8 |  |  | 157 | 9.5 | Cc1c(C(=O)N2CCc3c(ncn3-c3ccc(F)cn3)C2)cccc1C(F)(F)F [Example 312, (1-(5-fluoropyridin-2-yl)-6,7-dihydro-1H-imidazo[4,5-c]pyridin-5(4H)-yl)(2-methyl-3-(trifluoromethyl)phenyl)methanone]
631 |  |  | 180 | 1.3 | C[C@@H]1Cc2c(nnn2-c2cc(F)ccn2)CN1C(=O)c1cccc(C(F)(F)F)c1Cl (single isomer, unassigned) [Example 198, (6R*)-5-{[2-Chloro-3-(trifluoromethyl)phenyl]carbonyl}-1-(4-fluoropyridin-2-yl)-6-methyl-4,5,6,7-tetrahydro-1H-[1,2,3]triazolo[4,5-c]pyridine]
36.3 |  |  | 19.4 | −3.1 | CC1c2ncn(-c3ccc(F)cn3)c2CCN1C(=O)c1ccc(F)c(Cl)c1Cl (centres unmarked) [Example 261, (2,3-dichloro-4-fluorophenyl)(1-(5-fluoropyridin-2-yl)-4-methyl-6,7-dihydro-1H-imidazo[4,5-c]pyridin-5(4H)-yl)methanone]
31.6 |  |  | 14.3 | −9.2 | O=C(c1cccc(C(F)(F)F)c1Cl)N1CCc2c(nnn2-c2ncc(F)cn2)C1 [Example 64, 5-{[2-Chloro-3-(trifluoromethyl)phenyl]carbonyl}-1-(5-fluoropyrimidin-2-yl)-4,5,6,7-tetrahydro-1H-[1,2,3]triazolo[4,5-c]pyridine]
 | 456 | 8.5 | 104 |  | CC(C)C1c2ncn(-c3cnccn3)c2CCN1C(=O)c1cccc(C(F)(F)F)c1Cl (centres unmarked) [Example 16, (2-Chloro-3-(trifluoromethyl)phenyl)(4-isopropyl-1-(pyrazin-2-yl)-6,7-dihydro-1H-imidazo[4,5-c]pyridin-5(4H)-yl)methanone]
100 |  |  | 55.7 | 8.4 | O=C(c1cccc(Cl)c1Cl)N1CCc2c(ncn2-c2ccn[nH]2)C1 [Example 60, 5-[(2,3-Dichlorophenyl)carbonyl]-1-(1H-pyrazol-5-yl)-4,5,6,7-tetrahydro-1H-imidazo[4,5-c]pyridine]
